Source: ChEMBL document CHEMBL4251641, “Biotin conjugated organic molecules and proteins for cancer therapy: A review” (Eur J Med Chem, 2018)
Where a SMILES comes first, the peptide text is derived from it. Bridges are numbered along the chain shown (N, C = ends).

Assays:
[1] = Half life in human plasma; format: ADME, cell-free
[2] = Selectivity ratio of IC50 for mouse L1210 cells to IC50 for mouse L1210FR cells; format: functional
WI-38 = experiment: Cytotoxicity against human WI38 cells assessed as cell growth inhibition after 72 hrs by MTT assay; format: cell-based; conditions: WI-38, 72 h
L1210 = experiment: Cytotoxicity against mouse L1210 cells assessed as cell growth inhibition after 72 hrs by MTT assay; format: functional, cell-based; conditions: L1210, 72 h
[3] = Selectivity ratio of IC50 for human WI38 cells to IC50 for mouse L1210FR cells; format: toxicity; conditions: WI38 cells and L1210FR cells, read-out: Ratio IC50
[4] = Cytotoxicity against mouse L1210FR cells assessed as cell growth inhibition after 72 hrs by MTT assay; format: functional, cell-based
[5] = Inhibition of high-voltage activated calcium channel (unknown origin) expressed in NG108-15 cells at -90 mV holding potential by whole cell patch clamp assay; format: cell-based; conditions: Homo sapiens

With `Nc1ccn([C@@H]2O[C@H](CO)[C@@H](O)C2(F)F)c(=O)n1` [GEMCITABINE] the half-life [1] was 9 to 13 min.

For `CC(=O)O[C@@]12CO[C@@H]1C[C@H](O)[C@@]1(C)C(=O)[C@H](OC(=O)C3CC3)C3=C(C)[C@@H](OC(=O)[C@H](OC(=O)Cc4ccccc4SSCCC(=O)NNC(=O)CCCC[C@@H]4SC[C@@H]5NC(=O)N[C@@H]54)[C@H](C=C(C)C)NC(=O)OC(C)(C)C)C[C@@](O)([C@@H](OC(=O)c4ccccc4)[C@H]21)C3(C)C`, the “Ratio IC50” value [2] was 59, the IC50 (WI-38) was 570 nM and the IC50 (L1210) was 522 nM. The selectivity ratio [3] was 65 and the IC50 [4] was 8.8 nM.

`CC(C)C[C@H](NC(=O)[C@H](CCCCN)NC(=O)[C@H](Cc1c[nH]c2ccccc12)NC(=O)[C@H](CCCCN)NC(=O)[C@@H]1CSSC[C@@H]2NC(=O)[C@H](CCC(=O)O)NC(=O)[C@H](CC(N)=O)NC(=O)[C@H](CCCCN)NC(=O)CNC(=O)[C@@H]3CCCN3C(=O)[C@H]([C@@H](C)O)NC(=O)[C@@H]3CSSC[C@H](NC(=O)[C@H](C(C)C)NC(=O)[C@H](CCCNC(=N)N)NC(=O)[C@H](CC(N)=O)NC(=O)[C@@H]4CCCN4C(=O)[C@H](CSSC[C@H](NC(=O)[C@H](C)N)C(=O)N[C@@H](CCCCN)C(=O)NCC(=O)N[C@@H](C(C)C)C(=O)N[C@@H](Cc4ccccc4)C(=O)N[C@@H](CC(=O)O)C(=O)N[C@@H](C)C(=O)N3)NC2=O)C(=O)N[C@@H](CO)C(=O)N[C@@H](CC(=O)O)C(=O)N[C@@H](CCCCN)C(=O)N[C@@H](Cc2cnc[nH]2)C(=O)N[C@@H](CCCCN)C(=O)N[C@@H](Cc2c[nH]c3ccccc23)C(=O)N1)C(=O)O` (H-ACKGVFDACTPGKNECCPNRVCSDKHKWCKWKL-OH; disulfide 2-17, 9-22, 16-29) gave an EC50 [5] of 100 nM.
